Where “and” joins values, the source holds several entries; their conditions need not be identical. Equal entries are not always repeated. Structures can show the parent of a compound that is named as a salt. Where two headings read alike, the source gives them in different places.
Assays:
SUDHL10 [1] = experiment: Anti-proliferative effect (CellTiter-Glo, 72 h), SUDHL10; assay type: cell-based; details: SUDHL10 cells, antiproliferation, 72 h incubation, median, read-out: Antiproli SUDHL10 [M] (median)
Procedure, shortened: (§1)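 After seeding, one plate is read right away by CellTiter-Glo luminescence to fix time zero. The treated plates stay at 37 °C in humidified air for 72 h and are then measured with the same reagent and 10 min incubation.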

SUDHL10 [2] = experiment: Induction of cytotoxicity (CellTiter-Glo, 5 h), SUDHL10
MCL-1 = MCL-1 (Homo sapiens, UniProt Q07820); experiment: Protein-protein interaction assay MCL-1/Noxa BH3 peptide (MCL-1 assay), TR-FRET; assay type: binding; details: MBP-MCL-1 / Noxa BH3-derived peptide, median
Sequence of MCL-1 (Q07820 whole entry): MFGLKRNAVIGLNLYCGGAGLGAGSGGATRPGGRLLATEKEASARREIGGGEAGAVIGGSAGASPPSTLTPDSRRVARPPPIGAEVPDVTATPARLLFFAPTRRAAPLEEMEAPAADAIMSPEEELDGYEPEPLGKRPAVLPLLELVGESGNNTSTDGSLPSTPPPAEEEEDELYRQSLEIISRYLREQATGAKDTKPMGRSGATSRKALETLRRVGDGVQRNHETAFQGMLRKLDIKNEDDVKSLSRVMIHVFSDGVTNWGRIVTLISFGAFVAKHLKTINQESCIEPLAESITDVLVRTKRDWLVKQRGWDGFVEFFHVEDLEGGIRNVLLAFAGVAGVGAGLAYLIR
Procedure, shortened: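 Inhibition values were normalized between DMSO controls with all reagents and controls lacking MCL-1. The binding competition used 1 nM MBP-MCL-1 in pH 7 Tris buffer containing 50 mM KF and 100 mM NaCl, with a 10 min compound preincubation at 22 °C.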

A2780 = experiment: Anti-proliferative effect (CellTiter-Glo, 72 h), A2780; assay type: cell-based; details: A2780 cells, median, read-out: IC50 antiproliferation assay A2780 [M] (median)
Procedure, shortened: as §1

SUDHL5 [3] = experiment: Induction of caspase-3/7 activity (Caspase-Glo 3/7), SUDHL5; assay type: cell-based; details: caspase-3/7 induction, SUDHL5 cells, 3 h treatment, median
Procedure, shortened: (§2)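 Apoptosis induction measured as caspase-3/7 activity (Caspase-Glo 3/7) in DLBCL lines after 3 h treatment at 37 °C; EC50 derived relative to the reference compound's maximal induction, with C0 fixed at 1.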

SUDHL5 [4] = experiment: Induction of cytotoxicity (CellTiter-Glo, 5 h), SUDHL5
SUDHL10 [5] = experiment: Induction of caspase-3/7 activity (Caspase-Glo 3/7), SUDHL10; assay type: cell-based; details: caspase-3/7 induction, SUDHL10 cells, 3 h treatment, median
Procedure, shortened: as §2

OPM2 = experiment: Anti-proliferative effect (CellTiter-Glo, 72 h), OPM2; assay type: cell-based; details: OPM2 cells, median, read-out: IC50 antiproliferation assay OPM2 [M] (median)
Procedure, shortened: as §1

SUDHL5 [6] = experiment: Anti-proliferative effect (CellTiter-Glo, 72 h), SUDHL5; assay type: cell-based; details: SUDHL5 cells, antiproliferation, 72 h incubation, median, read-out: Antiproli SUDHL5 [M] (median)
Procedure, shortened: as §1

[7] = read-out: Cytotox SUDHL10 [M] (median), SUDHL10 cells, cytotoxicity induction, CellTiter-Glo, 5 h incubation, median
[8] = read-out: Cytotox SUDHL5 [M] (median), SUDHL5 cells, cytotoxicity induction, CellTiter-Glo, 5 h incubation, median
[9] = Homo sapiens, SU-DHL10, 5 h, read-out: Cytotox SUDHL10 [M] (median), SUDHL10 cells, cytotoxicity induction, CellTiter-Glo, 5 h incubation, median
[10] = Homo sapiens, SU-DHL-5, 5 h, read-out: Cytotox SUDHL5 [M] (median), SUDHL5 cells, cytotoxicity induction, CellTiter-Glo, 5 h incubation, median

SMILES	IC50 (SUDHL10 [1])	IC50 (SUDHL10 [2]; [7])	IC50 (MCL-1)	IC50 (A2780)	EC50 (SUDHL5 [3])	IC50 (SUDHL5 [4]; [8])	EC50 (SUDHL10 [5])	IC50 (OPM2)	IC50 (SUDHL5 [6]; Homo sapiens, SU-DHL-5, 72 h)	IC50 (SUDHL10 [1]; Homo sapiens, SU-DHL10, 72 h)	IC50 (SUDHL10 [2]; [9])	IC50 (A2780; Homo sapiens, A2780, 72 h)	EC50 (SUDHL5 [3]; Homo sapiens, SU-DHL-5, 3 h)	IC50 (OPM2; Homo sapiens, OPM-2, 72 h)	IC50 (SUDHL5 [6])	EC50 (SUDHL10 [5]; Homo sapiens, SU-DHL10, 3 h)	IC50 (SUDHL5 [4]; [10])
CC(C)OCc1nn(C)c2c1-c1cccc3c(CCCOc4cccc5ccccc45)c(C(=O)O)n(c13)CCCN(C)C2 (single isomer, unassigned) [Example 1-72, 7,9-dimethyl-1-[3-(naphthalen-1-yloxy)propyl]-1-[(propan-2-yloxy)methyl]-4,5,6,7,8,9-hexahydropyrazolo[3′,4′:7,8][1,5]diazecino[9,10,1-hi]indole-2-carboxylic Acid]	1.37e-05 M	1.98e-05 M	0.0126 µM	1.85e-05 M	> 33 µM	8.53e-06 M	> 33 µM	1.53e-05 M	2.38e-05 M	–	–	–	–	–	–	–	–
CN1CCCn2c(C(=O)O)c(CCCOc3cccc4ccccc34)c3cccc(c32)-c2c(COc3ccc(N4CCOCC4)cc3)nn(C)c2C1 (single isomer, unassigned) [Example 1-88, (+)-7,9-dimethyl-11-{[4-(morpholin-4-yl)phenoxy]methyl}-1-[3-(naphthalen-1-yloxy)propyl]-4,5,6,7,8,9-hexahydropyrazolo[3′,4′:7,8][1,5]diazecino[9,10,1-hi]indole-2-carboxylic Acid]	–	–	0.00789 µM	–	–	5.9e-06 M	6.35 µM	–	> 3.3e-05 M	> 3.3e-05 M	6.19e-06 M	> 3.3e-05 M	6.03 µM	> 3.3e-05 M	–	–	–
CN1CCCn2c(C(=O)O)c(CCCOc3cccc4ccccc34)c3cccc(c32)-c2c(COc3ccc(N4CCOCC4)cc3)nn(C)c2C1 (single isomer, unassigned) [Example 1-89, (−)-7,9-dimethyl-11-{[4-(morpholin-4-yl)phenoxy]methyl}-1-[3-(naphthalen-1-yloxy)propyl]-4,5,6,7,8,9-hexahydropyrazolo[3′,4′:7,8][1,5]diazecino[9,10,1-hi]indole-2-carboxylic Acid]	2.02e-05 M	1.14e-05 M	0.0541 µM	> 3.3e-05 M	11.7 µM	1.39e-05 M	27.5 µM	> 3.3e-05 M	–	–	–	–	–	–	> 3.3e-05 M	–	–
CCN(CC)S(=O)(=O)N1CCN(c2ccc(OCc3nn(C)c4c3-c3cccc5c(CCCOc6cccc7ccccc67)c(C(=O)O)n(c35)CCCCOC4)cc2)CC1 (single isomer, unassigned; enantiomer 1) [Example 1-4, 3-({4-[4-(diethylsulfamoyl)piperazin-1-yl]phenoxy}methyl)-1-methyl-7-[3-(naphthalen-1-yloxy)propyl]-1,10,11,12,13,15-hexahydropyrazolo[4′,3′:9,10][1,6]oxazacycloundecino[8,7,6-hi]indole-8-Carboxylic acid (Enantiomer 1)]	–	–	0.304 µM	2.47e-06 M	15.2 µM	1.83e-05 M	–	3.36e-06 M	–	1.73e-06 M	7.42e-06 M	–	–	–	2.43e-06 M	5.18 µM	–
COCc1nn(C)c2c1-c1cccc3c(CCCOc4cccc5ccccc45)c(C(=O)O)n(c13)CCCN(C)C2 (single isomer, unassigned; enantiomer 1) [Example 1-103, 11-(methoxymethyl)-7,9-dimethyl-1-[3-(1-naphthyloxy)propyl]-4,5,6,7,8,9-hexahydropyrazolo[3′,4′:7,8][1,5]diazecino[9,10,1-hi]indole-2-carboxylic Acid (Enantiomer 1)]	–	–	0.00735 µM	–	–	–	–	–	3.92e-06 M	1.02e-05 M	1.27e-05 M	> 3.3e-05 M	2.83 µM	1.58e-05 M	–	7.79 µM	3.97e-06 M
Cc1c2c(nn1CCN1CCOCC1)COCCCCn1c(C(=O)O)c(CCCOc3cccc4ccccc34)c3cccc-2c31 (single isomer, unassigned; enantiomer 1) [Example 054, 3-methyl-2-[2-(morpholin-4-yl)ethyl]-7-[3-(naphthalen-1-yloxy)propyl]-2,10,11,12,13,15-hexahydropyrazolo[4′,3′:9,10][1,6]oxazacycloundecino[8,7,6-hi]indole-8-carboxylic acid-N-ethylethanamine Salt (Enantiomer 1)]	2.44e-06 M	4.68e-06 M	0.00156 µM	–	1.47 µM	1.61e-06 M	6.64 µM	7.46e-06 M	8.08e-07 M	–	–	2.48e-05 M	–	–	–	–	–
Cn1nc(COc2ccc(N3CCOCC3)cc2)c2c1COCCCCn1c(C(=O)O)c(CCCOc3cccc4ccccc34)c3cccc-2c31 (single isomer, unassigned; enantiomer 1) [Example 122, 1-methyl-3-{[4-(morpholin-4-yl)phenoxy]methyl}-7-[3-(naphthalen-1-yloxy)propyl]-1,10,11,12,13,15-hexahydropyrazolo[4′,3′:9,10][1,6]oxazacycloundecino[8,7,6-hi]indole-8-carboxylic Acid (Enantiomer 1)]	–	–	0.0577 µM	–	27.5 µM	2.92e-05 M	21.8 µM	–	–	1.17e-05 M	> 3.3e-05 M	7.4e-06 M	–	2.79e-06 M	1.03e-05 M	–	–
CN1CCCn2c(C(=O)O)c(CCCOc3cccc4ccccc34)c3cccc(c32)-c2c(CNCC(F)(F)F)nn(C)c2C1 (single isomer, unassigned; enantiomer 1) [Example 130, 7,9-dimethyl-1-(3-(naphthalen-1-yloxy)propyl-11-{[(2,2,2-trifluoroethyl)amino]methyl}-4,5,6,7,8,9-hexahydropyrazolo[3′,4′:7,8][1,5]diazecino[9,10,1-hi]indole-2-carboxylic acid-N-ethylethanamine Salt (Enantiomer 1)]	–	> 3.3e-05 M	0.0331 µM	–	–	–	> 33 µM	6e-06 M	1.17e-05 M	6.42e-06 M	1.71e-05 M	1.11e-05 M	18.9 µM	–	–	24.4 µM	1.53e-05 M
COCc1nn(C)c2c1-c1cccc3c(CCCOc4cccc5ccccc45)c(C(=O)O)n(c13)CCCCOC2 (single isomer, unassigned; enantiomer 1) [Example 159, 3-(methoxymethyl)-1-methyl-7-[3-(naphthalen-1-yloxy)propyl]-1,10,11,12,13,15-hexahydropyrazolo[4′,3′:9,01][1,6]oxazacycloundecino[8,7,6-hi]indole-8-carboxylic acid-N-ethylethanamine Salt (Enantiomer 1)]	2.98e-05 M and > 3.3e-05 M	> 3.3e-05 M	0.0238 µM	–	–	–	> 33 µM	–	–	–	3.05e-05 M	> 3.3e-05 M	13.8 µM	> 3.3e-05 M	1.75e-05 M	28.6 µM	1.76e-05 M
CCOCc1nn(C)c2c1-c1cccc3c(CCCOc4cccc5ccccc45)c(C(=O)O)n(c13)CCCCOC2 (single isomer, unassigned; enantiomer 1) [Example 169, 3-(ethoxymethyl)-1-methyl-7-[3-(naphthalen-1-yloxy)propyl]-1,10,11,12,13,15-hexahydropyrazolo[4′3′:9,10][1,6]oxazacycloundecino[8,7,6-hi]indole-8-carboxylic Acid (Enantiomer 1)]	2.02e-05 M	> 3.3e-05 M	0.0184 µM	–	> 33 µM	1.74e-05 M and > 3.3e-05 M	> 33 µM	–	–	–	2.01e-05 M	2.02e-05 M	–	2.04e-05 M	2.68e-05 M	–	–
